pIC50: −log10 of the molar value.

This experiment addresses T1, human TLR8 (Homo sapiens, UniProt Q9NR97).
T1 construct: host or cells: HEK293 (HEK-Blue hTLR8)
T1 sequence (Q9NR97 27-1041): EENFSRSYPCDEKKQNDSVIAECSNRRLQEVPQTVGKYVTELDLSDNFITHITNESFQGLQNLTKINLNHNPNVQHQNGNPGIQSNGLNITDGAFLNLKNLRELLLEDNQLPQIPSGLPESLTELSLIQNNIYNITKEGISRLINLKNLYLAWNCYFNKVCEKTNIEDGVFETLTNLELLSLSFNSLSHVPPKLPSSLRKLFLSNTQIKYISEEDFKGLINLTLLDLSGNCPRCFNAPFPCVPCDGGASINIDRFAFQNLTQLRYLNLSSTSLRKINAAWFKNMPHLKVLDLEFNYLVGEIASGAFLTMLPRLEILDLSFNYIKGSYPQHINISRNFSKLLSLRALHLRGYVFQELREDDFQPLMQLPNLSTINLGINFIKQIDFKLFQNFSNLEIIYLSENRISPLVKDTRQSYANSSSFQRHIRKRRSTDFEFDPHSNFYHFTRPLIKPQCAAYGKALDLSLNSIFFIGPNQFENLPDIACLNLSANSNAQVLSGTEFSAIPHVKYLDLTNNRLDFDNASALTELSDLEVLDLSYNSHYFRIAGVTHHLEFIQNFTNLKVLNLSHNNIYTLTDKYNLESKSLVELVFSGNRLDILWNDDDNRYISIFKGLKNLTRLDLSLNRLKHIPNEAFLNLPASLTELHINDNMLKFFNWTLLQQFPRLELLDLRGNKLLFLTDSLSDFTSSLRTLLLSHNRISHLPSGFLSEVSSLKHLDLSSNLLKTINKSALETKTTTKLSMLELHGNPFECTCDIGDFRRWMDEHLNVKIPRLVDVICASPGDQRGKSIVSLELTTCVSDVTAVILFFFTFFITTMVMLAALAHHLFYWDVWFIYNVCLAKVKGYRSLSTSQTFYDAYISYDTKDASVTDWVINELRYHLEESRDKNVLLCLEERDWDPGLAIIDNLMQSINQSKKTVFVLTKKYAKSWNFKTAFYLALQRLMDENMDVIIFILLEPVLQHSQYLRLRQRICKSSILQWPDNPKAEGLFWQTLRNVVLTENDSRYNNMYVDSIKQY
Nature of the experiment: HEK293-Blue-hTLR-8 cells assay (SEAP reporter, R848 stimulation). The class given is cell-based. To be noted: HEK293-Blue-hTLR8 cells, R848, 20 hrs; read-out: HEK/hTLR8 IC50. The text has this: HEK293-Blue-hTLR-8 Cells Assay:
A stable HEK293-Blue-hTLR-8 cell line was purchased from InvivoGen (Cat. #: hkb-ht1r8, San Diego, Calif., USA). These cells were originally designed for studying the stimulation of human TLR8 by monitoring the activation of NF-κB. A SEAP (secreted embryonic alkaline phosphatase) reporter gene was placed under the control of the IFN-β minimal promoter fused to five NF-κB and AP-1-binding sites. The SEAP was induced by activating NF-κB and AP-1 via stimulating HEK-Blue hTLR8 cells with TLR8 ligands. Therefore the reporter expression was declined by TLR8 antagonist under the stimulation of a ligand, such as R848, for incubation of 20 hrs. The cell culture supernatant SEAP reporter activity was determined using QUANTI-Blue™ kit (Cat. #: rep-qb1, Invivogen, San Diego, Ca, USA) at a wavelength of 640 nm, a detection medium that turns purple or blue in the presence of alkaline phosphatase.
HEK293-Blue-hTLR8 cells were incubated at a density of 250,000˜450,000 cells/mL in a volume of 170 μL in a 96-well plate in Dulbecco's Modified Eagle's medium (DMEM) containing 4.5 g/L glucose, 50 U/mL penicillin, […], […], 2 mM L-glutamine, 10% (v/v) heat-inactivated fetal bovine serum with addition of 20 μL test compound in a serial dilution in the presence of final DMSO at 1% and 10 μL of 60 uM R848 in above DMEM, perform incubation under 37° C. in a CO2 incubator for 20 hrs. Then 20 μL of the supernatant from each well was incubated with 180 μL Quanti-blue substrate solution at 37° C. for 2 hrs and the absorbance was read at 620˜655 nm using a spectrophotometer. The signaling pathway that TLR8 activation leads to downstream NF-κB activation has been widely accepted, and therefore similar reporter assay was modified for evaluating TLR8 antagonist.
With `CO[C@@H]1CN(c2cc(C)nc(N3CCN(C[C@H]4CN(c5ccc(C#N)c6nccnc56)C[C@@H](C)O4)CC3)n2)C[C@@H]1N` [Example 120, 8-[(2S,6R)-2-[[4-[4-[(3S,4R)-3-amino-4-methoxy-pyrrolidin-1-yl]-6-methyl-pyrimidin-2-yl]piperazin-1-yl]methyl]-6-methyl-morpholin-4-yl]quinoxaline-5-carbonitrile], the pIC50 is 9.00. Next, `Cc1cnc(N2CCN(C[C@H]3CN(c4ccc(C#N)c5ncccc45)C[C@@H](C)O3)CC2)nc1N1CCNCC1` [Example 102, 5-[(2R,6S)-2-methyl-6-[[4-(5-methyl-4-piperazin-1-yl-pyrimidin-2-yl)piperazin-1-yl]methyl]morpholin-4-yl]quinoline-8-carbonitrile]: 8.70; `COc1cc(N2CCN(C[C@H]3CN(c4ccc(C#N)c5ncccc45)C[C@@H](C)O3)CC2)nc(N2CCNCC2)n1` [Example 91, 5-[(2S,6R)-2-[[4-(6-methoxy-2-piperazin-1-yl-pyrimidin-4-yl)piperazin-1-yl]methyl]-6-methyl-morpholin-4-yl]quinoline-8-carbonitrile]: 8.10. `Cc1ccc(N2C[C@H](CN3CCN(c4ccnc(N5CCN[C@H](C)C5)n4)CC3)O[C@H](C)C2)c2nccnc12` [Example 128, (2R,6S)-2-methyl-6-[[4-[2-[(3R)-3-methylpiperazin-1-yl]pyrimidin-4-yl]piperazin-1-yl]methyl]-4-(8-methylquinoxalin-5-yl)morpholine]: the pIC50 was 7.92. Regarding `CO[C@H]1CN(c2nccc(N3CCN(C[C@H]4CN(c5ccc(C#N)c6nccnc56)C[C@@H](C)O4)CC3)n2)C[C@@H]1N` [Example 99, 8-[(2S,6R)-2-[[4-[2-[(3S,4S)-3-amino-4-methoxy-pyrrolidin-1-yl]pyrimidin-4-yl]piperazin-1-yl]methyl]-6-methyl-morpholin-4-yl]quinoxaline-5-carbonitrile], the pIC50 was 9.00. Regarding `[2H]c1ccc2c(N3C[C@H](CN4CCN(c5nc(C)cc(N6CC(C)(N)C6)n5)CC4)O[C@H](C)C3)ccc(C#N)c2n1` [Example 135, 5-[(2S,6R)-2-[[4-[4-(3-amino-3-methyl-azetidin-1-yl)-6-methyl-pyrimidin-2-yl]piperazin-1-yl]methyl]-6-methyl-morpholin-4-yl]-2-deuterio-quinoline-8-carbonitrile], the pIC50 was 9.00. With `C[C@@H]1CN(c2ccc(C#N)c3ncccc23)C[C@H](CN2CCN(c3ccnc(N4C[C@@H](F)[C@@H](N)C4)n3)CC2)O1` [Example 95, 5-[(2S,6R)-2-[[4-[2-[(3S,4R)-3-amino-4-fluoro-pyrrolidin-1-yl]pyrimidin-4-yl]piperazin-1-yl]methyl]-6-methyl-morpholin-4-yl]quinoline-8-carbonitrile], the pIC50 was 8.52. With `[2H]c1ccc2c(N3C[C@H](CN4CCN(c5cnc(N6CC(C)(N)C6)cc5C)CC4)O[C@H](C)C3)ccc(C#N)c2n1` [Example 133, 5-[(2S,6R)-2-[[4-[6-(3-amino-3-methyl-azetidin-1-yl)-4-methyl-3-pyridyl]piperazin-1-yl]methyl]-6-methyl-morpholin-4-yl]-2-deuterio-quinoline-8-carbonitrile], the pIC50 is 7.77. On to `C[C@@H]1CN(c2ccc(C#N)c3ncccc23)C[C@H](CN2CCN(c3ncc(F)c(N4CCNCC4)n3)CC2)O1` [Example 94, 5-[(2S,6R)-2-[[4-(5-fluoro-4-piperazin-1-yl-pyrimidin-2-yl)piperazin-1-yl]methyl]-6-methyl-morpholin-4-yl]quinoline-8-carbonitrile], for which the pIC50 was 8.22. As to `[2H]c1ccc2c(N3C[C@H](CN4CCN(c5ccc(N6C[C@H](N)[C@@H](F)C6)nc5)CC4)O[C@H](C)C3)ccc(C#N)c2n1` [Example 150, 5-[(2S,6R)-2-[[4-[6-[(3S,4S)-3-amino-4-fluoro-pyrrolidin-1-yl]-3-pyridyl]piperazin-1-yl]methyl]-6-methyl-morpholin-4-yl]-2-deuterio-quinoline-8-carbonitrile], the pIC50 is 8.15. Take `CO[C@@H]1CN(c2cc(C)nc(N3CCN(C[C@H]4CN(c5ccc(C#N)c6nccnc56)C[C@@H](C)O4)CC3)n2)C[C@H]1N` [Example 121, 8-[(2S,6R)-2-[[4-[4-[(3R,4R)-3-amino-4-methoxy-pyrrolidin-1-yl]-6-methyl-pyrimidin-2-yl]piperazin-1-yl]methyl]-6-methyl-morpholin-4-yl]quinoxaline-5-carbonitrile]: the pIC50 is 9.00. Take `C[C@@H]1CN(c2ccc(C#N)c3nccnc23)C[C@H](CN2CCN(c3ccnc(N4CC[C@H](N)[C@H](F)C4)n3)CC2)O1` [Example 111, 8-[(2S,6R)-2-[[4-[2-[(3R,4S)-4-amino-3-fluoro-1-piperidyl]pyrimidin-4-yl]piperazin-1-yl]methyl]-6-methyl-morpholin-4-yl]quinoxaline-5-carbonitrile]: the pIC50 is 9.00. Next, `[2H]c1ccc2c(N3C[C@H](CN4CC(c5cnc(N6CC(C)(N)C6)cc5C)C4)O[C@H](C)C3)ccc(C#N)c2n1` [Example 145, 5-[(2S,6R)-2-[[3-[6-(3-amino-3-methyl-azetidin-1-yl)-4-methyl-3-pyridyl]azetidin-1-yl]methyl]-6-methyl-morpholin-4-yl]-2-deuterio-quinoline-8-carbonitrile]: 7.85. For the compound `C[C@@H]1CN(c2ccc(C#N)c3nccnc23)C[C@H](CN2CCN(c3nccc(N4CC(N)C4)n3)CC2)O1` [Example 118, 8-[(2S,6R)-2-[[4-[4-(3-aminoazetidin-1-yl)pyrimidin-2-yl]piperazin-1-yl]methyl]-6-methyl-morpholin-4-yl]quinoxaline-5-carbonitrile], the pIC50 was 9.00.

Consider `C[C@@H]1CN(c2ccc(C#N)c3nccnc23)C[C@H](CN2CCN(c3ccnc(N4CC[C@@H](N)[C@H](F)C4)n3)CC2)O1` [Example 113, 8-[(2S,6R)-2-[[4-[2-[(3R,4R)-4-amino-3-fluoro-1-piperidyl]pyrimidin-4-yl]piperazin-1-yl]methyl]-6-methyl-morpholin-4-yl]quinoxaline-5-carbonitrile], for which the pIC50 is 9.00.

For `[2H]c1ccc2c(N3C[C@H](CN4CC(c5ccc(N6CC(C)(N)C6)nc5)C4)O[C@H](C)C3)ccc(C#N)c2n1` [Example 138, 5-[(2S,6R)-2-[[3-[6-(3-amino-3-methyl-azetidin-1-yl)-3-pyridyl]azetidin-1-yl]methyl]-6-methyl-morpholin-4-yl]-2-deuterio-quinoline-8-carbonitrile], the pIC50 was 7.72. For the compound `CO[C@H]1CN(c2ccnc(N3CCN(C[C@H]4CN(c5ccc(C#N)c6ncccc56)C[C@@H](C)O4)CC3)n2)C[C@@H]1N` [Example 97, 5-[(2S,6R)-2-[[4-[4-[(3S,4S)-3-amino-4-methoxy-pyrrolidin-1-yl]pyrimidin-2-yl]piperazin-1-yl]methyl]-6-methyl-morpholin-4-yl]quinoline-8-carbonitrile], the pIC50 is 9.00. Take `Cc1cc(N2C[C@@H](N)[C@@H](F)C2)nc(N2CCN(C[C@H]3CN(c4ccc(C#N)c5nccnc45)C[C@@H](C)O3)CC2)n1` [Example 115, 8-[(2S,6R)-2-[[4-[4-[(3R,4S)-3-amino-4-fluoro-pyrrolidin-1-yl]-6-methyl-pyrimidin-2-yl]piperazin-1-yl]methyl]-6-methyl-morpholin-4-yl]quinoxaline-5-carbonitrile]: the pIC50 is 9.00.
